From US8318697B2, “Prophylactic and therapeutic treatment of infectious and other diseases with mono- and disaccharide-based compounds” (Corixa Corporation, priority 2000, dated 2012)
Where “and” joins values, the source holds several entries; their conditions need not be identical. Identical values can stand only once. Like-named read-outs stand apart in the source and are kept apart here.

Experiments:
[1] = test system: Ogawa P. gingivalis LPS stimulated whole blood cells; test: Inhibition of LPS-induced cytokines in whole blood; type: cell-based, human; details: 10, 5, 2.5 ug/mL
Source text: Table 4 provides the maximum levels of IL-4, IL-2 and IL-5 obtained, as well as ratios of TNF to IL-10, and ratios of IL-10 to TNF. Inhibition data for IL-8, reported as a percentage, are also provided on the right hand side of Table 4. For example, 90% inhibition would calculate to a 90% reduction of cytokine levels. MIP-1β results were similar. […]

human whole blood = type: cell-based; details: for cytokine stimulation in human whole blood cultures: overnight culture
[2] = test system: L. monocytogenes 10403 serotype; test: Murine Listeria monocytogenes challenge model; type: in vivo, Mice; details: 1 μg intravenously in 0.2% TEOA, challenge two days later; FIGS. 14-17
Procedure: This example provides experiments evaluating the induction of non-specific resistance in the murine Listeria monocytogenes challenge model performed using various AGPs and MPL. Mice (5 per group) were treated intravenously with the 1 μg of an AGP or MPL solubilized in 0.2% TEOA. Two days later the mice were challenged intravenously with a ˜10^5 L. monocytogenes 10403 serotype (provided by M. L. Gray, Montana State University, Bozeman, Mont.). Two days after the challenge, the mice were sacrificed and the number of colony forming units (CFUs) in the spleens of individual mice were determined by plating 10-fold serial dilutions of splenic homogenates on tryptic soy agar plates. The degree of protection afforded by a given AGP or MPL was calculated by subtracting the average number of bacteria per spleen (log 10 value) in the group of mice treated with a given compound, from the average number of bacteria per spleen (log 10 value) in a control group that was “sham” treated with vehicle (0.2% TEOA) prior to challenge with L. monocytogenes.

For `CCCCCCCCCCCCCC(=O)O[C@H](CCCCCCCCCCC)CC(=O)N[C@H]1[C@H](OC[C@H](NC(=O)C[C@@H](CCCCCCCCCCC)OC(=O)CCCCCCCCCCCCC)C(=O)O)O[C@H](CO)[C@@H](OP(=O)(O)O)[C@@H]1OC(=O)C[C@@H](CCCCCCCCCCC)OC(=O)CCCCCCCCCCCCC.CCN(CC)CC` [RC-512], the “% inhib. LPS IL-8” value [1] was −1%, the “IL-1β cba2” value (human whole blood; donor 1) was 3230 and the IL10/TNFα cba (human whole blood; donor 2, ratio of IL-10 to TNF) was 0.4. It also gave a TNFα/IL10 cba (human whole blood; donor 2, ratio of TNF to IL-10) of 3.9.
With `CCCCCCCCCCC[C@H](CC(=O)N[C@H]1[C@H](OC[C@H](NC(=O)C[C@@H](CCCCCCCCCCC)OC(=O)CCCCCCCCC)C(N)=O)O[C@H](CO)[C@@H](OP(=O)(O)O)[C@@H]1OC(=O)C[C@@H](CCCCCCCCCCC)OC(=O)CCCCCCCCC)OC(=O)CCCCCCCCC.CCN(CC)CC` [RC-522] the “protection against L. monocytogenes challenge (reduction of log 10 bacteria per spleen vs vehicle)” value [2] was “protection that was equal to or greater than that provided by MPL”, the IL10/TNFα cba (human whole blood; donor 1, ratio of IL-10 to TNF) was 2.7 and the TNFα/IL10 cba (human whole blood; donor 1, ratio of TNF to IL-10) was 0.4.
With `CCCCCCCCCCC[C@H](CC(=O)NCCO[C@@H]1O[C@H](CO)[C@@H](OP(=O)(O)O)[C@H](OC(=O)C[C@@H](CCCCCCCCCCC)OC(=O)CCCCCCCCC)[C@H]1NC(=O)C[C@@H](CCCCCCCCCCC)OC(=O)CCCCCCCCC)OC(=O)CCCCCCCCC.CCN(CC)CC` [RC-524] the “protection against L. monocytogenes challenge (reduction of log 10 bacteria per spleen vs vehicle)” value [2] was “protection that was equal to or greater than that provided by MPL”, the IL10/TNFα cba (human whole blood; donor 1, ratio of IL-10 to TNF) was 1.8 and the TNFα/IL10 cba (human whole blood; donor 1, ratio of TNF to IL-10) was 0.2. The IL10/TNFα cba (human whole blood; donor 2, ratio of IL-10 to TNF) was 4 and the TNFα/IL10 cba (human whole blood; donor 2, ratio of TNF to IL-10) was 0.3.
`CCCCCCCCCCCCCC(=O)O[C@H](CCCCCCCCCCC)CC(=O)NCCCO[C@@H]1O[C@H](CO)[C@@H](OP(=O)(O)O)[C@H](OC(=O)C[C@@H](CCCCCCCCCCC)OC(=O)CCCCCCCCCCCCC)[C@H]1NC(=O)C[C@@H](CCCCCCCCCCC)OC(=O)CCCCCCCCCCCCC.CCN(CC)CC` [RC-525] was tested, and the IL10/TNFα cba (human whole blood; donor 1, ratio of IL-10 to TNF) was 3.7, the TNFα/IL10 cba (human whole blood; donor 1, ratio of TNF to IL-10) was 1.8 and the IL10/TNFα cba (human whole blood; donor 2, ratio of IL-10 to TNF) was 0.7. The TNFα/IL10 cba (human whole blood; donor 2, ratio of TNF to IL-10) was 1.2.
`CCCCCCCCCCC[C@H](CC(=O)N[C@H]1[C@H](OC[C@H](NC(=O)C[C@@H](CCCCCCCCCCC)OC(=O)CCCCCCCC)C(=O)O)O[C@H](CO)[C@@H](OP(=O)(O)O)[C@@H]1OC(=O)C[C@@H](CCCCCCCCCCC)OC(=O)CCCCCCCC)OC(=O)CCCCCCCC.CCN(CC)CC` [RC-537] was tested, and the “% inhib. LPS IL-8” value [1] was 33% and the “IL-1β cba2” value (human whole blood) was 8353.
In the case of `CCCCCCCCCCC[C@H](CC(=O)N[C@H]1[C@H](OC[C@H](NC(=O)C[C@@H](CCCCCCCCCCC)OC(=O)CCCCCCCCCC)C(=O)O)O[C@H](CO)[C@@H](OP(=O)(O)O)[C@@H]1OC(=O)C[C@@H](CCCCCCCCCCC)OC(=O)CCCCCCCCCC)OC(=O)CCCCCCCCCC.CCN(CC)CC` [RC-538], the “% inhib. LPS IL-8” value [1] is reported as −3%, the IL10/TNFα cba (human whole blood) is reported as 0.5 and 0.3 and the “IL-1β cba2” value (human whole blood) is reported as 7767. For the same molecule, the TNFα/IL10 cba (human whole blood) was 2.3 and 4.
In the case of `CCCCCCCCCCC[C@H](CC(=O)N[C@@H](CCO)CO[C@@H]1O[C@H](CO)[C@@H](OP(=O)(O)O)[C@H](OC(=O)C[C@@H](CCCCCCCCCCC)OC(=O)CCCCCCCCC)[C@H]1NC(=O)C[C@@H](CCCCCCCCCCC)OC(=O)CCCCCCCCC)OC(=O)CCCCCCCCC.CCN(CC)CC` [RC-541], the “protection against L. monocytogenes challenge (reduction of log 10 bacteria per spleen vs vehicle)” value [2] is reported as “protection that was equal to or greater than that provided by MPL”.
For `CCCCCCCCCCC[C@H](CC(=O)N[C@@H](CO)CO[C@@H]1O[C@H](CO)[C@@H](OP(=O)(O)O)[C@H](OC(=O)C[C@@H](CCCCCCCCCCC)OC(=O)CCCCCCCCC)[C@H]1NC(=O)C[C@@H](CCCCCCCCCCC)OC(=O)CCCCCCCCC)OC(=O)CCCCCCCCC.CCN(CC)CC` [RC-545], the “protection against L. monocytogenes challenge (reduction of log 10 bacteria per spleen vs vehicle)” value [2] was “protection that was equal to or greater than that provided by MPL”.
With `CCCCCCCCCCC[C@H](CC(=O)N[C@H]1[C@H](OC[C@@H](NC(=O)C[C@@H](CCCCCCCCCCC)OC(=O)CCCCCCCCC)C(=O)O)O[C@H](CO)[C@@H](OP(=O)(O)O)[C@@H]1OC(=O)C[C@@H](CCCCCCCCCCC)OC(=O)CCCCCCCCC)OC(=O)CCCCCCCCC.CCN(CC)CC` [RC-547] the “protection against L. monocytogenes challenge (reduction of log 10 bacteria per spleen vs vehicle)” value [2] was “protection that was equal to or greater than that provided by MPL”.
For `CCCCCCCCCCC[C@H](CC(=O)N[C@H]1[C@H](OC[C@H](NC(=O)C[C@@H](CCCCCCCCCCC)OC(=O)CCCCCC)C(=O)O)O[C@H](CO)[C@@H](OP(=O)(O)O)[C@@H]1OC(=O)C[C@@H](CCCCCCCCCCC)OC(=O)CCCCCC)OC(=O)CCCCCC.CCN(CC)CC` [RC-554], the “% inhib. LPS IL-8” value [1] was 100%, the “IL-1β cba2” value (human whole blood; donor 1) was 545 and the IL10/TNFα cba (human whole blood; donor 2, ratio of IL-10 to TNF) was 1.1. The TNFα/IL10 cba (human whole blood; donor 2, ratio of TNF to IL-10) was 0.9 and the “cytokine stimulation in human whole blood cultures” value (“cytokine stimulation” below) (human whole blood) was “little if any cytokine stimulation”.
With `CCCCCCCCCCC[C@H](CC(=O)N[C@H]1[C@H](OC[C@H](NC(=O)C[C@@H](CCCCCCCCCCC)OC(=O)CCCCCCC)C(=O)O)O[C@H](CO)[C@@H](OP(=O)(O)O)[C@@H]1OC(=O)C[C@@H](CCCCCCCCCCC)OC(=O)CCCCCCC)OC(=O)CCCCCCC.CCN(CC)CC` [RC-555] the “% inhib. LPS IL-8” value [1] was 99%, the “IL-1β cba2” value (human whole blood; donor 1) was 519 and the IL10/TNFα cba (human whole blood; donor 2, ratio of IL-10 to TNF) was 1.2. For the same molecule, the TNFα/IL10 cba (human whole blood; donor 2, ratio of TNF to IL-10) was 0.8 and the “cytokine stimulation” value (human whole blood) was “little if any cytokine stimulation”.
`CCCCCCCCCCCCCC(=O)O[C@H](CCCCCCCCCCC)CC(=O)NCCCCO[C@@H]1O[C@H](CO)[C@@H](OP(=O)(O)O)[C@H](OC(=O)C[C@@H](CCCCCCCCCCC)OC(=O)CCCCCCCCCCCCC)[C@H]1NC(=O)C[C@@H](CCCCCCCCCCC)OC(=O)CCCCCCCCCCCCC.CCN(CC)CC` [RC-557] gave an IL10/TNFα cba (human whole blood; donor 1, ratio of IL-10 to TNF) of 0.6, a TNFα/IL10 cba (human whole blood; donor 1, ratio of TNF to IL-10) of 0.6 and a TNFα/IL10 cba (human whole blood; donor 2, ratio of TNF to IL-10) of 0.5.
With `CCCCCCCCCCC[C@H](CC(=O)N[C@H]1[C@H](OCCCN(CC(=O)O)C(=O)C[C@@H](CCCCCCCCCCC)OC(=O)CCCCCCCCC)O[C@H](CO)[C@@H](OP(=O)(O)O)[C@@H]1OC(=O)C[C@@H](CCCCCCCCCCC)OC(=O)CCCCCCCCC)OC(=O)CCCCCCCCC.CCN(CC)CC` [RC-558] the “protection against L. monocytogenes challenge (reduction of log 10 bacteria per spleen vs vehicle)” value [2] was “protection that was equal to or greater than that provided by MPL”.
In the case of `CCCCCCCCCCCC(=O)O[C@H](CCCCCCCCCCC)CC(=O)N[C@H]1[C@H](OC[C@H](NC(=O)C[C@@H](CCCCCCCCCCC)OC(=O)CCCCCCCCCCC)C(=O)O)O[C@H](CO)[C@@H](OP(=O)(O)O)[C@@H]1OC(=O)C[C@@H](CCCCCCCCCCC)OC(=O)CCCCCCCCCCC.CCN(CC)CC` [RC-560], the “% inhib. LPS IL-8” value [1] is reported as −1% and the “IL-1β cba2” value (human whole blood) is reported as 5833.
For `CCCCCCCCCCC[C@H](CC(=O)N[C@H]1[C@H](OC[C@H](NC(=O)C[C@@H](CCCCCCCCCCC)OC(=O)CCCCCCCCC)C(=O)O)O[C@H](CO)[C@@H](OP(=O)(O)O)[C@@H]1OC(=O)C[C@@H](CCCCCCCCCCC)OC(=O)CCCCC)OC(=O)CCCCCCCCC.CCN(CC)CC` [RC-566], the “% inhib. LPS IL-8” value [1] was 93% and the “cytokine stimulation” value (human whole blood) was “little if any cytokine stimulation”.
`CCCCCCCCCCC[C@H](CC(=O)N[C@H]1[C@H](OC[C@H](NC(=O)C[C@@H](CCCCCCCCCCC)OC(=O)CCCCCCCCC)C(=O)O)O[C@H](CO)[C@@H](OP(=O)(O)O)[C@@H]1OC(=O)C[C@@H](CCCCCCCCCCC)OC(=O)CCCCC)OC(=O)CCCCC.CCN(CC)CC` [RC-567] was tested, and the “% inhib. LPS IL-8” value [1] was 100% and the “cytokine stimulation” value (human whole blood) was “little if any cytokine stimulation”.
For `CCCCCCCCCCC[C@H](CC(=O)N[C@H]1[C@H](OC[C@H](NC(=O)C[C@@H](CCCCCCCCCCC)OC(=O)CCCCC)C(=O)O)O[C@H](CO)[C@@H](OP(=O)(O)O)[C@@H]1OC(=O)C[C@@H](CCCCCCCCCCC)OC(=O)CCCCC)OC(=O)CCCCCCCCC.CCN(CC)CC` [RC-568], the “% inhib. LPS IL-8” value [1] was 96% and the “cytokine stimulation” value (human whole blood) was “little if any cytokine stimulation”.
In the case of `CCCCCCCCCCC[C@H](CC(=O)N[C@H]1[C@H](OC[C@H](NC(=O)C[C@@H](CCCCCCCCCCC)OC(=O)CCCCC)C(=O)O)O[C@H](CO)[C@@H](OP(=O)(O)O)[C@@H]1OC(=O)C[C@@H](CCCCCCCCCCC)OC(=O)CCCCCCCCC)OC(=O)CCCCC.CCN(CC)CC` [RC-570], the “% inhib. LPS IL-8” value [1] is reported as 100% and the “cytokine stimulation” value (human whole blood) is reported as “little if any cytokine stimulation”.
Work on `CCCCCCCCCCCCCC(=O)O[C@H](CCCCCCCCCCC)CC(=O)NCCCCCCO[C@@H]1O[C@H](CO)[C@@H](OP(=O)(O)O)[C@H](OC(=O)C[C@@H](CCCCCCCCCCC)OC(=O)CCCCCCCCCCCCC)[C@H]1NC(=O)C[C@@H](CCCCCCCCCCC)OC(=O)CCCCCCCCCCCCC.CCN(CC)CC` [RC-571] yielded an IL10/TNFα cba (human whole blood; donor 1, ratio of IL-10 to TNF) of 8.6 and a TNFα/IL10 cba (human whole blood; donor 1, ratio of TNF to IL-10) of 0.5.
In the case of `CCCCCCCCCCC[C@H](CC(=O)N[C@@H](CCC(=O)O)CO[C@@H]1O[C@H](CO)[C@@H](OP(=O)(O)O)[C@H](OC(=O)C[C@@H](CCCCCCCCCCC)OC(=O)CCCCCCCCC)[C@H]1NC(=O)C[C@@H](CCCCCCCCCCC)OC(=O)CCCCCCCCC)OC(=O)CCCCCCCCC.CCN(CC)CC` [RC-573], the “protection against L. monocytogenes challenge (reduction of log 10 bacteria per spleen vs vehicle)” value [2] is reported as “protection that was equal to or greater than that provided by MPL”.
